Laboratory results taken from patent publication US9453016B2, “Terpenoid spiro ketal compounds with LXR agonists activity, their use and formulations with them” (priority 2010, dated 2016).

Legend:
liver cancer cell lines = conditions: cited from earlier work
LXRα = LXRα (Homo sapiens, UniProt Q13133); assay: LXR HTR-FRET coactivator (b-SRC1) recruitment assay, LXRα; assay type: biochemical; conditions: FRET 12-point dose response, GST-LXR LBD
Description: (§1) The LXR assay is configured using time-resolved fluorescence resonance energy transfer technology (HTR-FRET) (see Albers et al., J. Biol. Chem. 2006 24; 281(8) 4920-30; Chin J, Assay Drug Dev. Technol. 2003 1(6):777-87).
(§2) In the presence of an agonist, a fusion protein of glutathione S-transferase (GST) and LXR ligand binding domain (GST-LXR LBD) associates with a biotin-labeled nuclear receptor coactivator (b-SRC1). A fluorescent signal is detected in the presence of Eu-labeled anti GST antibodies and streptavidin-labeled allophycocyanin (APC). FRET is made possible by agonist-dependent close interaction of the test proteins.
(§3) Compounds which act as agonists at the LXR ligand binding domain were detected by an increase in time-resolved fluorescence. This LXR-FRET was performed as described by Albers et al. (loc. cit.).
(§4) FRET-active compounds were assayed in a FRET 12-point dose response experiment to determine the EC50—values of the compounds mentioned in the following Table 5.

LXRβ = LXRβ (Homo sapiens, UniProt P55055); assay: LXR HTR-FRET coactivator (b-SRC1) recruitment assay, LXRβ; assay type: biochemical; conditions: FRET 12-point dose response, GST-LXR LBD
LXRβ, sequence (P55055 222-460 limits assumed): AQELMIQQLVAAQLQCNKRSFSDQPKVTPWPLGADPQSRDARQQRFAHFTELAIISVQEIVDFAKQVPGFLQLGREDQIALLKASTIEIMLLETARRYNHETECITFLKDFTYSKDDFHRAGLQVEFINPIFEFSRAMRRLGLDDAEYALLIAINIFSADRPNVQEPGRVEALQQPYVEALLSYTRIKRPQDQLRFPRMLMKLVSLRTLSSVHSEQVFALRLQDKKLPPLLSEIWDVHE
LXRβ, sequence (Q15788 whole entry partner, the tested form may be a part): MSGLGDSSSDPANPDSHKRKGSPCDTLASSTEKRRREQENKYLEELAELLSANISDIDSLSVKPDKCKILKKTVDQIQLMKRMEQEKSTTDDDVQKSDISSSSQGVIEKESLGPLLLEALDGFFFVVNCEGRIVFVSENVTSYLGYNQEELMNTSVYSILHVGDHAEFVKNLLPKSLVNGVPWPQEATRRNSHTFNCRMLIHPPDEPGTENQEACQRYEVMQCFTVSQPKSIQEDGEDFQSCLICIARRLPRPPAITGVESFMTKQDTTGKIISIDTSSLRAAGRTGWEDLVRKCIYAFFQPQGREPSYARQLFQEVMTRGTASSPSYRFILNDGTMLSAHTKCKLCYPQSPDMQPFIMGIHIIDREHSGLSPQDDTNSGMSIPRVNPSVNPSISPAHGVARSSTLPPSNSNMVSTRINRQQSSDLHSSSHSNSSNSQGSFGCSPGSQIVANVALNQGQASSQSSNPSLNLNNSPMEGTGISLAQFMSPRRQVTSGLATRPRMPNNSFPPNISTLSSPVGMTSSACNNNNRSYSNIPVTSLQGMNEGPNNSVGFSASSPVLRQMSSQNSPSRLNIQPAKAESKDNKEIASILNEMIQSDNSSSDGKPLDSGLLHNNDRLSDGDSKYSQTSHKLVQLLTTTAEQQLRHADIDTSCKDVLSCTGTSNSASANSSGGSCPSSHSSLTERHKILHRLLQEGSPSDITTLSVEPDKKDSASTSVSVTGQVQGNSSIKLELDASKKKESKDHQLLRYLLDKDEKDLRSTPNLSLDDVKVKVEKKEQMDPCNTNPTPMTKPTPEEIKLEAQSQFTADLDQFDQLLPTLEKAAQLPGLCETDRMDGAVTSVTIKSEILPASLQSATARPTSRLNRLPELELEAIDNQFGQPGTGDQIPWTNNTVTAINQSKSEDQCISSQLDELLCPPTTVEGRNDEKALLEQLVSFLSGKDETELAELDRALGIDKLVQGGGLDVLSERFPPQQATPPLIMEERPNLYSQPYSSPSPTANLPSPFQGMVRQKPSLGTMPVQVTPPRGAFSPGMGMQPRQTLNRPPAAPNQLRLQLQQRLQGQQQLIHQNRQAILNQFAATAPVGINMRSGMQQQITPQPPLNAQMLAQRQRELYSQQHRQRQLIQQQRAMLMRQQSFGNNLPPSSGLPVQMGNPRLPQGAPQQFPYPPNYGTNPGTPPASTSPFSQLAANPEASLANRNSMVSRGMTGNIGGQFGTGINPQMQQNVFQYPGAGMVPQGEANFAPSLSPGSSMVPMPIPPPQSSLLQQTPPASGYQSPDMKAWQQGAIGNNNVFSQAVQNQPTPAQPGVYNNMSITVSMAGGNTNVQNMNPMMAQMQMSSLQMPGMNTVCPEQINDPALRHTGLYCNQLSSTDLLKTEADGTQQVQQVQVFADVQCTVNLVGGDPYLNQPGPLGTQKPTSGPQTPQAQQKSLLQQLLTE
Description: as §1, §2, §3, §4

lung cancer cells = conditions: cited from earlier work
[1] = system: female APOE*3-Leiden(E3L).CETP transgenic mice; assay: Plasma lipids in APOE*3Leiden.CETP transgenic mice on Western-type diet; assay type: in vivo; conditions: for Plasma cholesterol: mean ± SD of 10 mice
Description: The aim of the study was to evaluate the effects of extract IMD-XT0022 (see example 1c) on plasma lipids in female APOE*3-Leiden(E3L).CETP transgenic mice (hereinafter referred to as APOE*3Leiden mice). The effects were compared with phytosterol as a positive control.
Forty female APOE*3Leiden mice (from the specific pathogen free breeding stock at TNO-Metabolic Health Research, Leiden, Netherlands), 15-16 weeks of age at the start of the experiment were housed during the experiment in Macrolon® cages (maximally 5 animals per cage) in clean-conventional animal rooms (relative humidity 50-60%, temperature about 21° C., light cycle 7 am to 7 pm). Individual mice were marked by ear-punch holes and supplied with food and acidified tap water ad libitum. Dietary ingredients were provided by Hope Farms (Woerden, the Netherlands): The mice received a semi-synthetic modified Western-type diet (WTD) as described by Nishina et al., J. Lipid. Res. 1990:31:859, containing cholesterol (0.1% w/w, final concentration) and saturated fat (15% w/w cacao butter). The animals were put on a Western-type diet with 0.1% cholesterol for 4 weeks (run-in period). After the run-in period, APOE*3Leiden mice were sub-divided into three groups of 10 mice each and treated during 5 weeks with the following compounds: Control group (vehicle gavage, Western-type diet without diet additions), extract group (Western-type diet without diet additions, 100 mg/kg/d extract IMD-XT0022 via daily gavage) or phytosterol group (vehicle gavage, Western-type diet with addition of 1 wt. % of free phytosterol). One week before first administration of IMD-XT0022 mice were gavaged with vehicle to get used to the procedure. Food intake and body weight were measured weekly during the treatment period (t=0, 1, 2, 3, 4 and 5 weeks). After two and five weeks of treatment blood samples were taken after a 4 hour fasting period. After 3 weeks of treatment vehicle Delios V oil (a medium-chain triglyceride oil obtained from BASF Personal Care and Nutrition GmbH, Düsseldorf, Germany) was replaced by Polyethylengycol-400 (PEG-400, Sigma-Aldrich, Steinheim, Germany) for all groups.
Extract IMD-XT0022 was administered daily by oral gavage between 8.00 and 11.00 am CET. In the phytosterol group phytosterol was administered orally as admix to the WTD (1% w/w free phytosterol). The control group and the phytosterol group received the vehicle accordingly. The gavage volume during the treatment period was 10 ml/kg and was adjusted weekly based on the measured body weight of the respective week.
Plasma cholesterol, triglycerides and HDL cholesterol were measured individually at t=0, 2 and 5 weeks. On group level ALT, AST levels and lipoprotein profiles (at t=0 and 5 weeks) were measured. Feces were collected (per cage) during week 5.
On the mornings of the blood sampling time points of t=weeks 2 and t=5 weeks, gavages were not performed between 8.00-11.00 am, but were performed after the blood sampling. At t=5 weeks, 3 days after the last blood sampling, mice were sacrificed after a 4 hour fasting period (and without giving a gavage on the day of sacrifice) by CO2 suffocation. EDTA-plasma was collected via heart puncture and stored at <−70° C. and several organs were collected.
After a 4 weeks run-in period, 10 low-responder mice were removed from the study. The remaining 30 mice where subdivided into 3 groups of 10 mice each, matched for body weight, plasma cholesterol, triglycerides, HDL-cholesterol and age (t=0) […]

[2] = system: female APOE*3-Leiden(E3L).CETP transgenic mice; assay: Pooled lipoprotein profiles (FPLC) in APOE*3Leiden.CETP mice; assay type: in vivo; conditions: after 5 weeks of treatment, pooled plasma per group

LXRα, sequence (Q13133 209-447 limits assumed): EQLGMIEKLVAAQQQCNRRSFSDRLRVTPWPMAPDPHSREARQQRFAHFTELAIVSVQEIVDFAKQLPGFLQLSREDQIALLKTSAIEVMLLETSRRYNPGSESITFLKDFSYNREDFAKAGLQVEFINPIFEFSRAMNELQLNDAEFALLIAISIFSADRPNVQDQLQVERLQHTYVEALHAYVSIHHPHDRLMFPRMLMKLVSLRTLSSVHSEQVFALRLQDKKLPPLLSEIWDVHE
LXRα, sequence (Q15788 whole entry partner, the tested form may be a part): as the sequence (Q15788 whole entry partner, the tested form may be a part) above

Compound | EC50 (LXRα) [µM] | EC50 (LXRβ) [µM] | other results
COc1ccc2c(c1C)CC[C@]1(C)[C@@H]3CC[C@]21O[C@@]1(OC(C)(C)[C@@H](C)[C@H]1O)[C@H]3C [Compound 14, (2S,3S,3′R,4R,4aR,4′S,10bR)-8-methoxy-3,4a,4′,5′,5′,7-hexamethyl-4,4a,4′,5,5′,6-hexahydro-3H,3′H-spiro[4,10b-ethanobenzo[h]chromene-2,2′-furan]-3′-ol] | – | – | Biological activities against liver cancer cell lines (liver cancer cell lines): confirmed the biological activities
COc1ccc2c(c1C)C=C[C@]1(C)[C@@H]3CC[C@]21O[C@@]1(OC(C)(C)[C@@H](C)[C@H]1O)[C@H]3C [Compound 1, (2S,3S,3′R,4R,4′S,4aR,10bR)-4,4′,4a,5′-Tetrahydro-8-methoxy-3,4′,4a,5′,5′,7-hexamethyl-spiro[4,10b-ethano-10bH-naphtho[1,2-b]pyran-2(3H),2′(3′H)-furan]-3′-ol] | 1.4 | 25 | Biological activities against liver cancer cell lines (liver cancer cell lines): confirmed the biological activities
COc1ccc2c(c1CO)C=C[C@]1(C)[C@@H]3CC[C@]21O[C@@]1(OC(C)(C)[C@@H](C)[C@H]1O)[C@H]3C [Compound 3, (2S,3S,3′R,4R,4′S,4aR,10bR)-4,4′,4a,5′-Tetrahydro-3′-hydroxy-8-methoxy-3,4′,4a,5′,5′-pentamethyl-spiro[4,10b-ethano-10bH-naphtho[1,2-b]pyran-2(3H),2′(3′H)-furan]-7-methanol] | 11 | 24 | –
C[C@H]1[C@@H](O)[C@@]2(OC1(C)C)O[C@]13CC[C@H]([C@@H]2C)[C@@]1(C)[C@H](O)C=C1C3=CC(=O)C2=CC(=O)CC[C@@]21C [Compound 9, (1R,2S,2′S,3′R,4aS,4′S,10aR,12R,12aS)-3′,12-dihydroxy-2,4′,5′,5′,10a,12a-hexamethyl-4′,5′,10,10a,12,12a-hexahydro-1H,3′H-spiro[1,4a-ethanonaphtho[1,2-h]chromene-3,2′-furan]-6,8(2H,9H)-dione] | 1 | 4.6 | –
CO[C@@H]1C=C2C3CC[C@H](C(C)/C=C/C(C)C(C)C)[C@@]3(C)CC[C@@H]2[C@@]2(C)CC[C@H](O)C[C@]12O (stereo partly drawn) [blazein] | – | – | Apoptosis in lung cancer cells (lung cancer cells): induced apoptosis
C[C@H]1[C@@H](O)[C@]2(OC1(C)C)O[C@]13CC[C@H]([C@@H]2C)[C@@]1(C)CC=C1C3=CC(=O)C2=CC(=O)CC[C@@]21C [Compound 5, (14β,22S,23R)-14,22:22,25-Diepoxy-23-hydroxy-ergosta-4,7,9-triene-3,6-dione] | 7.6 | 24 | –
C[C@H]1[C@H](O)[C@@]2(OC1(C)C)O[C@]13CC[C@H]([C@@H]2C)[C@@]1(C)C=CC1=C3C=CC2=CC(=O)CC[C@@]21C [Compound 6, (14β,22S,23S)-14,22:22,25-Diepoxy-23-hydroxy-ergosta-4,6,8,11-tetraen-3-one] | 5.5 | 14 | –
COc1ccc2c(c1C)CC(=O)[C@]1(C)[C@@H]3CC[C@]21O[C@@]1(OC(C)(C)[C@@H](C)[C@H]1O)[C@H]3C [Compound 8, (2S,3S,3′R,4R,4aR,4′S,10bS)-3′-hydroxy-8-methoxy-3,4a,4′,5′,5′,7-hexamethyl-4,4a,4′,5′-tetrahydro-3H,3′H-spiro[4,10b-ethanobenzo[h]chromene-2,2′-furan]-5(6H)-one] | 24 | 31 | –
Cc1c(O)ccc2c1C=C[C@]1(C)[C@@H]3CC[C@]21O[C@@]1(OC(C)(C)[C@@H](C)[C@H]1O)[C@H]3C [Compound 2, (2S,3S,3′R,4R,4′S,4aR,10bR)-4,4′,4a,5′-tetrahydro-3,4′,4a,5′,5′,7-hexamethyl-spiro[4,10b-ethano-10bH-naphtho[1,2-b]pyran-2(3H),2′(3′H)-furan]-3′,8-diol] | 1.1 | 5.5 | –
phytosterol | – | – | Decrease of plasma cholesterol as compared to the control group ([1]; after 5 weeks of treatment): 16%; Decrease of plasma triglycerides as compared to the control group ([1]; after 5 weeks of treatment): 36%; Plasma HDL, effect as compared to the control group ([1]; mouse, in vivo): not affected; Plasma cholesterol ([1]; t = 0 weeks (after run-in, before treatment)): 10.9 ± 1.6 mM; Plasma cholesterol ([1]; t = 2 weeks of treatment, extract 100 mg/kg/d gavage, phytosterol 1 wt.% in diet): 9.4 ± 1.3 mM; Plasma cholesterol ([1]; t = 5 weeks of treatment, extract 100 mg/kg/d gavage, phytosterol 1 wt.% in diet): 8.1 ± 1.8 mM; Decrease in the area under the curve of the VLDL peak, cholesterol [2]: 25%; Decrease in the area under the curve of the VLDL peak, phospholipid [2]: 21%
COc1ccc2c(c1C)C=C[C@@]1(C)[C@]23CC[C@]1(O)[C@H](C)[C@]1(OC(C)(C)[C@@H](C)[C@H]1O)O3 [Compound 7, (2S,3S,3′R,4R,4′S,4aR,10bR)-4,4′,4a,5′-Tetrahydro-17-hydroxy-8-methoxy-3,4′,4a,5′,5′,7-hexamethyl-spiro[4,10b-ethano-10bH-naphtho[1,2-b]pyran-2(3H),2′(3′H)-furan]-3′-ol] | 31 | 34 | –
